{"source": "patent US20220105108A1", "about": "“PERIVASCULAR ANTI-INFLAMMATORY THERAPY FOR VENOUS THROMBOSIS” (Mercator MedSystems, Inc., priority 2020, published 2022)", "key": {"[1]": {"assay": "DANCE-Pilot study and DANCE trial: adventitial dexamethasone after femoropopliteal revascularization", "format": "in vivo, human", "settings": "for transient hyperglycemia event: controlled with insulin; for Rate of CD-TLR: 12 months", "from_the_text": "Provided herein are examples of in vivo human clinical trials using the Bullfrog Micro-Infusion Device for local delivery of dexamethasone. The Bullfrog Micro-Infusion Device was successfully used in the DANCE (Dexamethasone to the Adventitia to Enhance Clinical Efficacy After Femoropopliteal Revascularization)-Pilot study and the DANCE trial in superficial femoral and popliteal arteries.\nIn the DANCE-Pilot study, 20 subjects were enrolled and treated with the Bullfrog device delivery of dexamethasone sodium phosphate. In the DANCE trial, 283 limbs were enrolled and treated with the Bullfrog device delivery of dexamethasone sodium phosphate. In 3.3% of the subjects enrolled in DANCE, there was no detected contrast medium distribution in the adventitia and perivascular tissues. In one subject in DANCE-Pilot and one subject in DANCE, there was a transient hyperglycemia event reported, which was treated and controlled with insulin therapy. There were no other unexpected adverse device events or suspected unexpected severe adverse reactions reported in the study.\nThe single-arm DANCE (Dexamethasone to the Adventitia to Enhance Clinical Efficacy After Femoropopliteal Revascularization) trial enrolled 262 subjects (283 limbs) with symptomatic peripheral artery disease (Rutherford category 2 to 4) receiving percutaneous transluminal angioplasty (PTA) (n=124) or atherectomy (ATX) (n=159) in femoropopliteal lesions <15 cm in length. A mixture of dexamethasone/contrast medium (80%/20%) was delivered to the adventitia and perivascular tissues surrounding target lesions in all subjects. Thirty-day assessments included major adverse limb events (MALE) and post-operative death. Twelve-month assessments included primary patency, freedom from clinically driven target lesion revascularization (CD-TLR), Rutherford scoring, and walking impairment questionnaire. […] In the secondary analysis, both the ATX and PTA DANCE groups were noninferior to the 72.3% contemporary performance goal, whether examining the PP (P<0.001 and P<0.004, respectively) or ITT (P<0.002 and P<0.005, respectively) population."}, "[2]": {"settings": "10 mg equivalent dexamethasone phosphate in 3 ml, after angioplasty, 14 days", "procedure": "A first study was designed to compare a high dose of dexamethasone (10 mg equivalent dose of dexamethasone phosphate) delivered in 3 ml volume to the perivascular tissue of porcine AV grafts (6 mm ringed PTFE) implanted between femoral artery and femoral vein pairs, bilaterally. Fourteen days after graft implantation, percutaneous transluminal angioplasty (PTA) was performed (7 mm balloon, 16 atmosphere inflation pressure) at two sites per graft: across the graft-vein anastomosis (GVA) and in the proximal vein (PV). Perivascular infusion of either dexamethasone (6 grafts) or placebo (2 grafts) was administered following the PTA procedure. Infusions of 3m1 were always consistent between the 2 grafts in each animal. Animals were euthanized 14 days after the treatment procedure and the graft-vein anastomosis and proximal vein were analyzed by histopathology and histomorphometry to determine adverse effects from the high dose of dexamethasone. The study was not powered to identify differences in stenosis but rather was aimed at determining dexamethasone local toxicity."}, "[3]": {"settings": "in vivo", "procedure": "(§1) A second study was designed to assess the local toxicity of dexamethasone administered via the Bullfrog Micro-Infusion Device in a swine model. The following objectives were met in the study: In each of four subjects, confirmation of the safety of up to 16 mg dexamethasone delivered to the adventitia and perivascular tissue of each of 4 peripheral arteries and 6.4 mg dexamethasone delivered to the adventitia and perivascular tissue of each of 3 coronary arteries (at 3.2 mg/mL with 20% contrast), as compared to normal untreated tissue in two untreated subjects by clinical pathology and histopathology examination, at 28±3 days."}, "[4]": {"system": "P-selectin", "settings": "cited from earlier work"}, "[5]": {"system": "vWF", "settings": "at 24 hours and 48 hours with dexamethasone treatment; cited from earlier work"}, "[6]": {"assay": "Local toxicity of dexamethasone administered via Bullfrog device to peripheral and coronary arteries in swine", "settings": "28±3 days", "procedure": "as §1"}}, "note": "Like-named read-outs stand apart in the source and are kept apart here."}
{"smiles": "C[C@@H]1C[C@H]2[C@@H]3CCC4=CC(=O)C=C[C@]4(C)[C@@]3(F)[C@@H](O)C[C@]2(C)[C@@]1(O)C(=O)COP(=O)(O)O", "note": "[dexamethasone sodium phosphate]", "values": [{"measurement": "other unexpected adverse device events or suspected unexpected severe adverse reactions", "setting": "[1]; DANCE-Pilot and DANCE", "result": "no other"}, {"measurement": "transient hyperglycemia event", "setting": "[1]; DANCE-Pilot, 20 subjects", "result": "one subject"}, {"measurement": "transient hyperglycemia event", "setting": "[1]; DANCE", "result": "one subject"}]}
{"smiles": "C[C@@H]1C[C@H]2[C@@H]3CCC4=CC(=O)C=C[C@]4(C)[C@@]3(F)[C@@H](O)C[C@]2(C)[C@@]1(O)C(=O)CO", "note": "[dexamethasone, 9-fluoro-11(beta),17,21-trihydroxy-16(alpha)-methylpregna-1,4-diene-3,20-dione]", "values": [{"measurement": "30-day MALE+post-operative death events", "setting": "[1]; DANCE trial", "result": "no 30-day MALE+post-operative death events"}, {"measurement": "Rate of CD-TLR", "setting": "[1]; DANCE-ATX, ITT", "result": 13.1, "unit": "%"}, {"measurement": "primary patency rate at 12 months", "setting": "[1]; DANCE-ATX, intent-to-treat", "result": 74.8, "unit": "%"}, {"measurement": "primary patency rate at 12 months", "setting": "[1]; DANCE-ATX, per-protocol", "result": 78.4, "unit": "%"}, {"measurement": "Rate of CD-TLR", "setting": "[1]; DANCE-ATX, per-protocol", "result": 10.0, "unit": "%"}, {"measurement": "Rate of CD-TLR", "setting": "[1]; DANCE-PTA, ITT", "result": 13.7, "unit": "%"}, {"measurement": "primary patency rate at 12 months", "setting": "[1]; DANCE-PTA, intent-to-treat", "result": 74.3, "unit": "%"}, {"measurement": "primary patency rate at 12 months", "setting": "[1]; DANCE-PTA, per-protocol", "result": 75.5, "unit": "%"}, {"measurement": "Rate of CD-TLR", "setting": "[1]; DANCE-PTA, per-protocol", "result": 11.0, "unit": "%"}, {"measurement": "dose-limiting toxicity", "setting": "[1]; in vivo", "result": "No dose-limiting toxicity"}, {"measurement": "histopathology findings of femoral GVA vs perivascular placebo", "setting": "[2]", "result": "no differences"}, {"measurement": "adverse or toxicologically meaningful changes in the treated vessels", "setting": "[3]", "result": "no adverse or toxicologically meaningful changes"}, {"measurement": "P-selectin, time of elevation", "setting": "[4]; dexamethasone treatment", "result": 48, "unit": "h"}, {"measurement": "P-selectin levels", "setting": "[4]; high dose 1 mg/kg bid×2 days, healthy males", "result": "induced elevated P-selectin levels"}, {"measurement": "P-selectin levels", "setting": "[4]; low dose 0.04 mg/kg bid×2 days", "result": "did not induce elevated P-selectin levels"}, {"measurement": "vWF", "setting": "[5]", "result": "elevated"}, {"measurement": "gross necropsy, injury to the treatment areas", "setting": "[6]", "result": "no evidence of injury"}, {"measurement": "local toxicity to the treated vessels (microscopic evaluation)", "setting": "[6]", "result": "no evidence of local toxicity"}, {"measurement": "local vascular irritation upon injection", "setting": "[6]", "result": "no evidence of local vascular irritation"}, {"measurement": "peripheral organs abnormalities associated with test article", "setting": "[6]", "result": "did not reveal any abnormalities"}, {"measurement": "thrombosis or stenosis of treated vessels", "setting": "[6]", "result": "no evidence of thrombosis or stenosis"}, {"measurement": "adverse postoperative events leading to early death", "setting": "[6]; up to 83.2 mg per subject", "result": "None of the animals"}]}
